Measurements from paper PMC4301629 (PLoS ONE, 2015).
Each block holds one compound with its values, some of them ahead of it.

Legend:
α1A-AR [1] = molecular target: T1, α1A-AR (Homo sapiens, UniProt P35348); experiment: LC-MS detection of IP1, IP2 and IP3 in α1A-AR_CHO stable cells; type: cell-based; design: expressed in transfected cells; conditions: α1A-AR CHO, Iso up to 1 mM
T1 sequence (P35348 1-466): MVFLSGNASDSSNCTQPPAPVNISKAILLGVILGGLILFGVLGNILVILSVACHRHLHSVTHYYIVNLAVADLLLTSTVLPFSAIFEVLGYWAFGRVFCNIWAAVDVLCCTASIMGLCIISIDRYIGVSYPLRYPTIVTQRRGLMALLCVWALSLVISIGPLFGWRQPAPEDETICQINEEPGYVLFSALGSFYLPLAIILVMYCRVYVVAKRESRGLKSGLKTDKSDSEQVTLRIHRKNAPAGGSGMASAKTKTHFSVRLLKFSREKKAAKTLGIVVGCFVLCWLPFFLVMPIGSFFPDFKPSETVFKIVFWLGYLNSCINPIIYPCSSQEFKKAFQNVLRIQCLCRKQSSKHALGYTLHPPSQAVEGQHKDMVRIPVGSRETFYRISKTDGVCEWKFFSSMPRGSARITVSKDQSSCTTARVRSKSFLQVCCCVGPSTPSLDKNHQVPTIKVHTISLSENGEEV
Procedure: (§1) After that, the medium was replaced with agonist solution in assay buffer (20 mM HEPES, 10 mM glucose, 1.8 mM CaCl2, 0.5 mM MgSO4, in HBSS 1X buffer, 50 mM LiCl) and cells were incubated at 37°C for 30 min. Stimulation was stopped by exchange of assay buffer with lysis buffer (100 μL 0.1N HCl/MeOH), and lysis proceeded for 30 min at 4°C. Cellular levels of inositol phosphates were determined using a Thermo LC-MS detection system following a published protocol. Chromatography was performed employing a BioBasic column AX (50 × 2.1 mm, Thermo). The mobile phase consisted of solvent A: 10 mM ammonium acetate, pH 6 in 30/70 acetonitrile/water, and solvent B: 1 mM ammonium acetate, pH 11 in 30/70 acetonitrile/water. A gradient solvent system was used starting with 0% solvent B, and analytes were eluted by increasing solvent B to 100% over 3 min. Each data point represents the average of triplicate determinations and each experiment was performed at least three times independently.
IP1, IP2, and IP3 levels were determined via LC-MS. Plots are representative of three independent experiments with each data point being the average of triplicates.

α1A-AR [2] = molecular target: T1, α1A-AR; experiment: LC-MS detection of IP1, IP2 and IP3 in α1A-AR transduced HEK-293/EBNA cells; type: cell-based; design: expressed in transfected cells; host or cells: HEK-293/EBNA (baculovirus transduction, NaBu induction); conditions: Iso up to 10 mM
Procedure: as §1, with “Virally transduced HEK-293/EBNA cells were resuspended in growth medium and seeded in poly-D-lysine coated 96-well black plates at a density of 100,000 cells/0.1 mL per well, Cells were allowed to attach for 2 hours at 37°C in a humidified atmosphere of 95% air and 5% CO2. After” for “After”

HEK293/EBNA cells = experiment: IP accumulation (IP-One HTRF) in untransduced HEK-293/EBNA cells; type: cell-based; conditions: HEK293/EBNA untransduced
α1A-AR [3] = molecular target: T1, α1A-AR; experiment: Ca2+ transient response (FLIPR, fluo3) in α1A-AR transduced HEK-293/EBNA cells; type: cell-based; design: expressed in transfected cells; host or cells: HEK-293/EBNA (baculovirus transduction, NaBu induction); conditions: 100 nM NE, α1A-AR_HEK-293/EBNA
Procedure: (§2) Prior to experiments, cells were transduced with baculovirus strains designed for transient expression of α1A-AR or aldehyde oxidase (negative control). This was performed by incubating cells with virus (MOI 100–150) for 3 to 4 h, followed by exchange into fresh serum free growth medium supplemented with 4 mM sodium butyrate (NaBu). Cells were grown for another 14 to 18 h and then examined for agonist-evoked responses in transient Ca^2+ release, IP accumulation or pERK activation assays. The surface receptor expression density was determined by flow cytometry via immunofluorescence labeling of an N-terminal HA epitope tag on the receptor and radioligand binding in partially purified membranes.
(§3) Cells were resuspended in Hank’s balanced salt solution (Invitrogen) supplemented with 2 mM CaCl2, 10 mM HEPES pH 7.4, 2.5 mM probenecid, plus 1g/L each of glucose and bovine serum albumin (BSA), and seeded in poly-D-lysine coated 96-well black plates with transparent bottom (Costar) at a density of 50,000 cells/0.1 mL per well. Cells were then incubated for 1 h at 37°C with an additional 0.1 mL of buffer containing 4 μM fluo3-AM that was diluted from a stock solution containing 1 mM fluo3-AM dye in DMSO with 10% pluronic acid. After dye loading incubation, plates were washed twice with 100 μL of buffer and refilled with 100 μL of assay buffer. In experiments testing the effect of antagonists, 25 μL of buffer from wells of washed cells were replaced with 25 μL of vehicle or 4× antagonist solution. Pre-incubation of ligand with dye-loaded cells proceeded for 5–30 minutes immediately prior to measurements of agonist-evoked responses. Agonist-evoked Ca^2+ mobilization responses of cell populations were monitored at room temperature simultaneously in all wells of the assay plate using the plate-imaging fluorometric reader FLIPR (MDS Analytical Technologies, Sunnyvale, CA). […] The amplitudes of Ca^2+ transient responses are reported as ΔF/F0, or fold-change in Ca^2+ dye fluorescence relative to the baseline signal ΔF/F0 = (F-F0)/F0 +1 (where ΔF is maximal fluorescence intensity observed following agonist application, F0 = baseline fluorescence, or average intensity measured over the 10 s interval prior to agonist application). Image acquisition rates were varied from 1 Hz during the first 100 s of measurements to 0.5 Hz for the remaining time of the recording.
(§4) Graphs shown reflect either pooled or representative data (see figure legends). For concentration-response analysis, results from Ca^2+ mobilization experiments were plotted as ΔF/F0 vs. agonist concentration and fit to a sigmoidal concentration-response equation using the GraphPad Prism software package. In cases where biphasic concentration-response curves were observed data were fit to a two-site concentration-response model: F(X)=R0+(Rmax−R0)[Fr1/(1+10^X-logEC50,1)+(1−Fr1)/(1+10^X-logEC50,2)] (1) , where X is the logarithm of the agonist concentration, R0 and Rmax are respectively the response minimum and maximum; Fr1 is the response fraction attributable to receptor characterized by half effective concentration of the first response phase (EC50,1), with the reminder response attributable to the second half effective concentration (EC50,2). For radioligand binding experiments, B max values were calculated from maximum binding using the equation B max = (SB × ([…] + [L])/[L]), where SB is the specific binding expressed as fmol per mg of membrane protein, and [L] is the ligand concentration.

α1A-AR [4] = conditions: for α1A-AR; cited from earlier work
β2-AR = molecular target: T2, β2-AR (Homo sapiens, UniProt P07550); experiment: Ca2+ transient response (FLIPR, fluo3) in untransduced / negative control HEK-293/EBNA cells; type: cell-based; conditions: non-transduced control cells; ICI 118551 10 nM, RS100329 10 nM, atenolol 1 μM
T2 construct: HEK-293/EBNA cells are known to express β2-AR endogenously; endogenous in cells; host or cells: HEK-293/EBNA (untransduced or negative-control transduced)
Procedure: as §2
Cells were resuspended in Hank’s balanced salt solution (Invitrogen) supplemented with 2 mM CaCl2, 10 mM HEPES pH 7.4, 2.5 mM probenecid, plus 1g/L each of glucose and bovine serum albumin (BSA), and seeded in poly-D-lysine coated 96-well black plates with transparent bottom (Costar) at a density of 50,000 cells/0.1 mL per well. […] Agonist-evoked Ca^2+ mobilization responses of cell populations were monitored at room temperature simultaneously in all wells of the assay plate using the plate-imaging fluorometric reader FLIPR (MDS Analytical Technologies, Sunnyvale, CA). […]

α1A-AR [5] = molecular target: T1, α1A-AR; experiment: IP accumulation (IP-One HTRF) in α1A-AR transduced HEK-293/EBNA cells; type: cell-based; design: expressed in transfected cells; host or cells: HEK-293/EBNA (baculovirus transduction, NaBu induction); conditions: 10 nM antagonist preincubation; large rightward shift in A-61603 potency
Procedure: as §2
After 10–20 minutes, 10 μL of agonist was added followed by incubation for 5 to 30 minutes. Stimulation was stopped by addition of lysis buffer. Second messenger levels were determined using a homogeneous immunoassay method with time-resolved FRET detection (IP-One HTRF, Cisbio International) according to protocols provided by the supplier. Sample fluorescence was measured with a Nanoscan plate reader (IOM, Berlin). Each data point represents the average of quadruplicate determinations and each experiment was performed at least two times independently.

α1A-AR [6] = molecular target: T1, α1A-AR; experiment: Ca2+ transient response (FLIPR) in α1A-AR_CHO stable cells; type: cell-based; design: expressed in transfected cells; conditions: antagonist at 100 nM
Procedure: as §3, with “In experiments testing the effect of antagonists, 25 μL of buffer from wells of washed cells were replaced with 25 μL of vehicle or 4× antagonist solution. Pre-incubation of ligand with dye-loaded cells proceeded for 5–30 minutes immediately prior to measurements of agonist-evoked responses.” left out, “Image acquisition rates were varied from 1 Hz during the first 100 s of measurements to 0.5 Hz for the remaining time of the recording.” left out
IP1, IP2, and IP3 levels were determined via LC-MS. […]

α1A-AR [7] = experiment: Ca2+ transient response (FLIPR, fluo3) in α1A-AR transduced HEK-293/EBNA cells; type: cell-based; conditions: α1A-AR HEK-293/EBNA; for effect of antagonist on Iso-evoked Ca2+ response: RS100329 10 nM, ICI 118551 10 nM, atenolol 1 μM
Procedure: as §2, §3, §4

T2 sequence (P07550 whole entry): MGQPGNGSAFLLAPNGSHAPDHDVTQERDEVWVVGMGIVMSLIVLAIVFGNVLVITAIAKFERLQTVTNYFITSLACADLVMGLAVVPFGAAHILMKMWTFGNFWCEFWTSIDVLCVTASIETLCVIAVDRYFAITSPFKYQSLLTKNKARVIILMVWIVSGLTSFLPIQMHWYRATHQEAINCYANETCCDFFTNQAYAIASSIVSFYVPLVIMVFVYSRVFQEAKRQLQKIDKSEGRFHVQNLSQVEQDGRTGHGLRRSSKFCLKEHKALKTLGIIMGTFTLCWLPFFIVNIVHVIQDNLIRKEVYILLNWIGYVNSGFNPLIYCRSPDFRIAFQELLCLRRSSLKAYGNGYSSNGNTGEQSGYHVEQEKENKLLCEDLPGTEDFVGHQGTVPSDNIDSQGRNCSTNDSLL

Structure (SMILES): NC[C@H](O)c1ccc(O)c(O)c1 [NE, norepinephrine]
cellular concentration of inositol phosphates IP1, IP2 and IP3 (α1A-AR [1]): concentration-dependent increases
cellular levels of inositol phosphates IP1, IP2 and IP3 (α1A-AR [2]): concentration-dependent increases
EC50 IP (HEK293/EBNA cells): BQL
time to peak response amplitude post-agonist addition (α1A-AR [3]): ≤ 10 s

effect of antagonist on Iso-evoked Ca2+ response (β2-AR): ineffective
effect of antagonist on A-61603-stimulated IP accumulation (α1A-AR [5]): significantly attenuated IP accumulation
effect of antagonist pretreatment on Iso Ca2+ response (α1A-AR [6]): blocked
Structure (SMILES): Cc1c[nH]c(=O)n(CCCN2CCN(c3ccccc3OCC(F)(F)F)CC2)c1=O [RS100329]
pKB (α1A-AR [4]): 9.6
effect of antagonist on Iso-evoked Ca2+ response (α1A-AR [7]): virtually complete blocking of the low potency phase

Structure (SMILES): Cc1ccc(OCC(O)C(C)NC(C)C)c2c1CCC2 (stereo not drawn) [ICI 118551]
attenuation of responses to high Iso concentrations (α1A-AR [7]; ICI 118551 at 10 nM): ~50%
effect of antagonist on Iso-evoked Ca2+ response (α1A-AR [7]): abolished responses to low Iso concentrations

Structure (SMILES): CC(C)NCC(O)COc1ccc(CC(N)=O)cc1 (stereo not drawn) [atenolol]
effect of antagonist on Iso-evoked Ca2+ response (α1A-AR [7]): had no effect
